Assay results published in patent US20110039762A1, “TARGETED ANTIMICROBIAL MOIETIES” (C3 JIAN, INC., priority 2009, published 2011).
Converted amounts (≈) assume the structure as drawn. Like-named read-outs stand apart in the source and are kept apart here. Bridge positions count the residues as written; N and C are the ends. Square brackets hold non-standard residues; d marks the D form. Ends that are not written are not given here. Peptide text beside a SMILES is read from it. I, II: the chains in the order shown. Aoc = NCCCCCCCC(=O)O

Columns and labels:
[1] = system: Klebsiella pneumoniae KAY 2026; type: cell-based
Description: (§1) Aerobic Gram-negative organisms were grown in Lauri-Bertaini (LB) broth and Gram-positive bacteria in Brain-heart infusion (BHI) broth. Streptococcus mutans JM11 (spectinomycin resistant, UA140 background) was grown in Todd-Hewitt (TH) broth under anaerobic conditions (80% N2, 15% CO2, 5% H2) at 37° C. Merritt et al. (2005) J Microbiol Meth., 61: 161-170. All bacteria were grown overnight to an OD600 of 0.8-1.0 prior to appropriate dilution and antimicrobial testing.
(§2) Briefly, ˜1×10^5 cfu/mL bacteria were diluted in TH (S. mutans), or Mueller-Hinton (MH) broth (all other organisms) and distributed to 96-well plates. Serially-diluted (2-fold) peptides were then added and the plates incubated at 37° C. for 18-24 h. […] All experiments were conducted 10 times.

[2] = system: Staphylococcus aureus Newmann; type: cell-based
Description: as §1, §2

S. mutans [3] = test: Post-antibiotic effect assay (growth retardation after 10 min exposure); type: cell-based, Streptococcus mutans; settings: S. mutans monoculture, peptide 10 min, then fresh medium
Description: The activity and selectivity of MH-STAMPs after a 10 min incubation was determined by growth retardation experiments against targeted and untargeted bacteria in monocultures, as described previously (Id.). Cells from overnight cultures were diluted to ˜5×10^6 cfu/mL in MH (or TH with 1% sucrose for S. mutans), normalized by OD600 0.05-0.1 and seeded to 96-well plates. Cultures were then grown under the appropriate conditions for 2 h (3 h for S. mutans) prior to the addition of peptides for 10 min. Plates were then centrifuged at 3000×g for 5 min, the supernatants discarded, fresh medium returned (MH or TH without sucrose for S. mutans), and incubation resumed. Bacterial growth after treatment was then monitored over time by OD600.

P. aeruginosa [4] = type: cell-based, Pseudomonas aeruginosa
Description: (§3) Typically, the in vitro antimicrobial activity of antimicrobial agents is tested using standard NCCLS bacterial inhibition assays, or MIC tests (see, National Committee on Clinical Laboratory Standards “Performance Standards for Antimicrobial Susceptibility Testing,” NCCLS Document M100-S5 Vol. 14, No. 16, December 1994; “Methods for dilution antimicrobial susceptibility test for bacteria that grow aerobically-Third Edition,” Approved Standard M7-A3, National Committee for Clinical Standards, Villanova, Pa.).
as §2

E. coli [5] = type: cell-based, Escherichia coli
Description: as §3, §2

S. mutans [6] = type: cell-based, Streptococcus mutans
[7] = system: Mixed planktonic populations of P. aeruginosa, E. coli, S. epidermidis, and S. mutans; test: Microbial population shift assay; type: cell-based; settings: 10 μM peptide, 24 h
Description: Peptide (10 μM) or mock-treatment (1× PBS) was then added and samples were incubated at 37° C. for 24 h under anaerobic conditions (80% N2, 15% CO2, 5% H2). […] Plates were then incubated 37° C. under aerobic conditions (TH plates were incubated anaerobically) and colonies counted after 24 h to determine survivors. […] Gram stains and direct microscopic observation (from select isolated colonies) were undertaken to confirm species identity (data not shown). The detection limit of the assay was 200 cfu/mL.

S. epidermidis [8] = type: cell-based, Staphylococcus epidermidis
Description: as §3, §2

B. subtilis [9] = test: MIC (broth microdilution); type: cell-based, Bacillus subtilis
Method in brief: (§4)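 MIC determined per NCCLS standard microdilution, with peptide 2-fold dilution series against ˜1×10^5 cfu/mL cells in Mueller-Hinton medium, incubated 18-24 h at 37° C.; ten independent experiments.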

C. albicans = test: Kill or inhibit growth/proliferation; morphology, biofilm and growth disruption (Tables 5, 6); type: cell-based, Candida albicans; design: key: A: Peptide aggregates; B: Less hyphal formation; Clumps; Diffuse clumps and small polyps; F: Diffuse growth; H: Thin; I: Growth inhibition; Microcolony formation; Rippled; Small polyps; Thick; W: Halo formation on top, microlonies on bottom
MRSA [10] = test: MIC (broth microdilution); type: cell-based, Methicillin-resistant Staphylococcus aureus
Method in brief: as §4

MRSA [11] = test: Kill or inhibit growth/proliferation; morphology, biofilm and growth disruption (Tables 5, 6); type: cell-based, Methicillin-resistant Staphylococcus aureus; design: key: A: Peptide aggregates; B: Less hyphal formation; Clumps; Diffuse clumps and small polyps; F: Diffuse growth; H: Thin; I: Growth inhibition; Microcolony formation; Rippled; Small polyps; Thick; W: Halo formation on top, microlonies on bottom
S. epidermidis [12] = test: as above; type: cell-based, Staphylococcus epidermidis; design: key: A: Peptide aggregates; B: Less hyphal formation; Clumps; Diffuse clumps and small polyps; F: Diffuse growth; H: Thin; I: Growth inhibition; Microcolony formation; Rippled; Small polyps; Thick; W: Halo formation on top, microlonies on bottom
P. aeruginosa [13] = test: as above; type: cell-based, Pseudomonas aeruginosa; design: key: A: Peptide aggregates; B: Less hyphal formation; Clumps; Diffuse clumps and small polyps; F: Diffuse growth; H: Thin; I: Growth inhibition; Microcolony formation; Rippled; Small polyps; Thick; W: Halo formation on top, microlonies on bottom
M. luteus = test: as above; type: cell-based, Micrococcus luteus; design: key: A: Peptide aggregates; B: Less hyphal formation; Clumps; Diffuse clumps and small polyps; F: Diffuse growth; H: Thin; I: Growth inhibition; Microcolony formation; Rippled; Small polyps; Thick; W: Halo formation on top, microlonies on bottom
C. jeikeium [14] = test: as above; type: cell-based, Corynebacterium jeikeium; design: key: A: Peptide aggregates; B: Less hyphal formation; Clumps; Diffuse clumps and small polyps; F: Diffuse growth; H: Thin; I: Growth inhibition; Microcolony formation; Rippled; Small polyps; Thick; W: Halo formation on top, microlonies on bottom
B. subtilis [15] = test: as above; type: cell-based, Bacillus subtilis; design: key: A: Peptide aggregates; B: Less hyphal formation; Clumps; Diffuse clumps and small polyps; F: Diffuse growth; H: Thin; I: Growth inhibition; Microcolony formation; Rippled; Small polyps; Thick; W: Halo formation on top, microlonies on bottom
S. pneumoniae = test: as above; type: cell-based, Streptococcus pneumoniae; design: key: A: Peptide aggregates; B: Less hyphal formation; Clumps; Diffuse clumps and small polyps; F: Diffuse growth; H: Thin; I: Growth inhibition; Microcolony formation; Rippled; Small polyps; Thick; W: Halo formation on top, microlonies on bottom
T. rubrum = test: MIC (broth microdilution); type: cell-based, Trichophyton rubrum
Description: as §3, §2

C. jejuni = test: Kill or inhibit growth/proliferation; morphology, biofilm and growth disruption (Tables 5, 6); type: cell-based, Campylobacter jejuni; design: key: A: Peptide aggregates; B: Less hyphal formation; Clumps; Diffuse clumps and small polyps; F: Diffuse growth; H: Thin; I: Growth inhibition; Microcolony formation; Rippled; Small polyps; Thick; W: Halo formation on top, microlonies on bottom
microorganisms = test: Peptides having multiple activities (targeting/binding, antimicrobial, growth or phenotype altering)
From the text: In certain embodiments, peptides described herein can have multiple activities. Thus for example, a peptide can have both binding/targeting activity and antimicrobial activity. Such peptides can be used, e.g., in a chimeric construct, for any or all of these properties. Thus, for example, a peptide designated “B” in Table 8 can be used as a targeting peptide. If it is also designated G or M it can also be used for antimicrobial activity.

A. niger = test: MIC (broth microdilution); type: cell-based, Aspergillus niger
Description: as §3, §2

C. jeikeium [16] = test: MIC (broth microdilution); type: cell-based, Corynebacterium jeikeium
Description: as §3, §2

E. coli [17] = test: Kill or inhibit growth/proliferation; morphology, biofilm and growth disruption (Tables 5, 6); type: cell-based, Escherichia coli; design: key: A: Peptide aggregates; B: Less hyphal formation; Clumps; Diffuse clumps and small polyps; F: Diffuse growth; H: Thin; I: Growth inhibition; Microcolony formation; Rippled; Small polyps; Thick; W: Halo formation on top, microlonies on bottom
A. baumannii = test: MIC (broth microdilution); type: cell-based, Acinetobacter baumannii
Description: as §3, §2

C. difficile = test: MIC (broth microdilution); type: cell-based, Clostridium difficile
Description: as §3, §2

For CC[C@H](C)[C@H](NC(=O)[C@H](Cc1ccccc1)NC(=O)CCCCCCCNC(=O)[C@H](CCCCNC(=O)CNC(=O)CNC(=O)CNC(=O)[C@H](Cc1c[nH]cn1)NC(=O)[C@H](CCCCN)NC(=O)[C@H](CCCNC(=N)N)NC(=O)[C@H](Cc1c[nH]cn1)NC(=O)[C@H](CCCCN)NC(=O)[C@H](CCCNC(=N)N)NC(=O)[C@H](Cc1c[nH]cn1)NC(=O)[C@H](CCCCN)NC(=O)[C@H](CCCNC(=N)N)NC(=O)[C@H](Cc1c[nH]cn1)NC(=O)[C@H](CCCCN)NC(=O)[C@@H](N)CCCCN)NC(=O)CNC(=O)CNC(=O)CNC(=O)[C@H](C)NC(=O)[C@H](CCC(=O)O)NC(=O)[C@H](CC(N)=O)NC(=O)[C@H](C)NC(=O)[C@H](C)NC(=O)[C@H](CC(=O)O)NC(C)=O)C(=O)N[C@@H](CCCNC(=N)N)C(=O)N[C@@H](CCCCN)C(=O)N[C@@H](Cc1ccccc1)C(=O)N[C@@H](CC(C)C)C(=O)N[C@@H](CCCCN)C(=O)N[C@@H](CCCCN)C(=O)N[C@@H](Cc1c[nH]c2ccccc12)C(=O)N[C@@H](CC(C)C)C(=O)N[C@@H](CC(C)C)C(N)=O [BL(KH)-20] (I: Ac-DAANEAGGGK[Aoc]FIRKFLKKWLL-NH2 / II: H-KKHRKHRKHRKHGGG; amide I:10-II:C), the MIC [1] was 6.25 µM (≈ 27.3 µg/mL), the MIC [2] was 6.25 µM (≈ 27.3 µg/mL) and the “bacterial growth (OD600) after treatment” value (S. mutans [3]) was “not altered”. It also gave an MIC (P. aeruginosa [4]) of 27.5 ± 7.90 µM (≈ 120 µg/mL), an MIC (E. coli [5]) of 6.25 µM (≈ 27.3 µg/mL) and an MIC (S. mutans [6]) of 6.25 µM (≈ 27.3 µg/mL). For the same compound, the “recoverable (surviving) cfu/mL” value ([7]; E. coli in mixed culture) was “unchanged numbers”, the “recoverable (surviving) cfu/mL” value ([7]; P. aeruginosa in mixed culture) was “not observed” and the “recoverable (surviving) cfu/mL” value ([7]; S. epidermidis in mixed culture) was “unchanged numbers”. The “recoverable (surviving) cfu/mL” value ([7]; S. mutans in mixed culture) was “higher than input cfu/mL” and the MIC (S. epidermidis [8]) was 6.25 µM (≈ 27.3 µg/mL).

In the case of “GSVIKKRRKRMAKKKHRKLLKKTRIQRRRAGK [PF-527]”, the MIC (B. subtilis [9]) is reported as “B. subtilis, 12.5 μM”, the “Organism, effect” value (C. albicans) is reported as “C. albicans (B)” and the MIC (P. aeruginosa [4]) is reported as “P. aeruginosa, 50 μM”. The MIC (MRSA [10]) was “MRSA , 50 μM”, the “Organism, effect” value (MRSA [11]) was “MRSA (I)” and the “Organism, effect” value (S. epidermidis [12]) was “S. epidermidis (M)”. For the same compound, the “Organism, effect” value (P. aeruginosa [13]) was “P. aeruginosa (I)”, the “Organism, effect” value (M. luteus) was “M. luteus (S)” and the “Organism, effect” value (C. jeikeium [14]) was “C. jeikeium (I)”. The “Organism, effect” value (B. subtilis [15]) was “B. subtilis (I)”, the “Organism, effect” value (S. pneumoniae) was “S. pneumoniae (H)” and the MIC (T. rubrum) was “T. rubrum, 25 μM”. The “Organism, effect” value (C. jejuni) was “C. jejuni (M)”, the Activities (microorganisms) was “G B M” and the MIC (A. niger) was “A. niger, 50 μM”. The MIC (C. jeikeium [16]) was “C. jeikeium, 6.25 μM” and the MIC (S. epidermidis [8]) was “S. epidermidis, 25 μM”.

YIQFHLNQQPRPKVKKIKIFL-NH2 [PF-531] was tested, and the MIC (B. subtilis [9]) was “B. subtilis, 25 μM”, the MIC (P. aeruginosa [4]; P. aeruginosa) was “P. aeruginosa, 50 μM” and the “Organism, effect” value (S. epidermidis [12]) was “S. epidermidis (I)”. The “Organism, effect” value (E. coli [17]) was “E. coli (M)”, the “Organism, effect” value (P. aeruginosa [13]) was “P. aeruginosa (I)” and the MIC (A. baumannii) was “A. baumannii, 25 μM”. For the same compound, the “Organism, effect” value (S. pneumoniae) was “S. pneumoniae (C)”, the MIC (T. rubrum) was “T. rubrum, 50 μM” and the Activities (microorganisms) was “G M”. For the same compound, the MIC (C. difficile) was “C. difficile, 12.5 μM”, the MIC (A. niger) was “A. niger, 25 μM” and the MIC (C. jeikeium [16]) was “C. jeikeium, 6.25 μM”. The MIC (S. mutans [6]; S. mutans) was “S. mutans, 12.5 μM” and the MIC (S. epidermidis [8]; S. epidermidis) was “S. epidermidis, 50 μM”.
